This is an account of results in patent US4096252A, “4-Trifluoromethylbenzoic acid derivatives as thromboembolic agents” (priority 1976, dated 1978).

SMILES strings stand for the structures. Values joined by “and” are separate entries in the source; they are usually repeats but may differ in a detail not shown here. Equal entries are not always repeated. Where two headings read alike, the source gives them in different places.

The test system of data set [1] is human platelet aggregation. As to the kind of experiment: Human platelet aggregation induced by ADP and epinephrine after oral administration to humans. It counts as in vivo. To be noted: Tables III and IV. Here is the method:
(§1) In the in vivo tests on humans, the two selected compounds were administered per os during six consecutive days at equimolar doses: 200 mg three times a day of 2-acetoxy-4-trifluoromethylbenzoic acid and 248 mg three times a day of 2-phosphonoxy-4-trifluoromethylbenzoic acid.
(§2) Blood was collected on the first, fourth and seventh day of the test and the platelet aggregation induced by ADP, epinephrine and collagen was determined according to the above-mentioned Born method.
(§3) EFFECT OF 2-ACETOXY-4-TRIFLUOROMETHYLBENZOIC ACID
(§4) AND 2-PHOSPHONOXY-4-TRIFLUOROMETHYLBENZOIC
ACID ON PLATELET AGGREGATION INDUCED BY ADP AND
EPINEPHRINE AFTER ORAL ADMINISTRATION TO HUMANS*
*The figures express the concentration (μM) that produces irreversible

Data set [2] concerns human platelet aggregation. As to the kind of experiment: Human platelet aggregation induced by collagen after oral administration to humans. The data set is classed as in vivo. To be noted: collagen 33.3 μg/m, one value per human; for delay (collagen-induced aggregation curve) / x (collagen-induced aggregation curve): increase vs control = inhibition. The procedure:
The significance of the parameters employed in Table IV (x, y and delay) is indicated; and
as §1, §2, §3, §4
ACID ON PLATELET AGGREGATION INDUCED BY
COLLAGEN AFTER ORAL ADMINISTRATION TO HUMANS*.
*An increase of delay time and x and a decrease of y with respect to
control indicate an inhibitory effect on platelet aggregation (see FIG.

Data set [3] deals with rat platelet aggregation. Briefly: In vitro inhibition of rat platelet aggregation (Born and Cross method). To be noted: for inhibition at 4150 µM: plasma concentration 4.15×10^-3 molar; for inhibition at 8300 µM: plasma concentration 8.30×10^-3 molar. The data set is classed as cell-based. The procedure: Platelet aggregation was measured according to the method of Born and Cross (8) by using rat and human plasma.

Data set [4] has as its system human platelet aggregation. Briefly: In vitro inhibition of human platelet aggregation (Born and Cross method). The data set is classed as cell-based. The procedure: Platelet aggregation was measured according to the method of Born and Cross (8) by using rat and human plasma. The results are summarized below in Tables I and II.
Key : PC = Plasma Concentration: PAI = Platelet Aggregation
*The percent of inhibition was calculated using the method described by
McKenzie (Proc. Soc. Exp. Biol. Med. 137: 662, 1971).

Data set [5] deals with blood coagulation factors and fibrinolysis. It counts as in vivo, human. To be noted: oral; for Hematocrit / Platelet count / Euglobin lysis time: Von Kaulas's test / Activated kaolin test / Activated partial thromboplastin test: APTI / Howell's test / Plasma prothrombine test: Quick test / Serum prothrombin time / Bleeding time, Duke test / Clotting time / Thromboelastogram K / Thromboelastogram r: mean ± s.e.m.; for Euglobin lysis time: Von Kaulas's test: decrease vs control = drug effect; for Activated kaolin test / Activated partial thromboplastin test: APTI / Howell's test / Plasma prothrombine test: Quick test / Serum prothrombin time: decrease vs control = inhibitory effect; for Bleeding time, Duke test / Clotting time / Thromboelastogram K / Thromboelastogram r: increase vs control = inhibitory effect. The procedure:
The values r and k (in parameter 15 of Table V) correspond to blood (b). Their significance appears from the Figure.
as §1, §2
The potential anticoagulant and fibrinolytic activity of the claimed compounds has therefore likewise been investigated. For this purpose, with the same blood samples used for the determination of in vivo antiaggregating action on humans, the following parameters were examined: clotting time, bleeding time (Duke test), tourniquet test, Parrot's test, plasma prothrombine test (Quick test), activated partial thromboplastin test (APTT), activated Kaolin test, Howell's test, serum prothrombin time, euglobulin lysis time, Von Kaula's test, degradation products of fibrinogen (DPF), platelet count, clot retraction, hematocrit and thromboelastogram.
EFFECT OF 2-ACETOXY-4-TRIFLUOROMETHYLBENZOIC ACID AND 2-PHOSPHONOXY-4-TRIF
ZOIC ACID ON BLOOD COAGULATION FACTORS AND FIBRINOLYSIS*.
treated with 2-acetoxy-4-trifluoromethylbenzoic acid and on 6 humans
treated with 2-phos phonoxy-4-trifluoromethylbenzoic acid. An increase of
the mean values (±s.e.m.) of parameters 1 and 2 or a decrease of
parameters 5,6,7,8,9,10 and 11 with respect to control, mean an inhibitor
effec of drugs on the blood coagulation and fibrinolysis.
**An increase of r and k values with respect to control, indicates an
inhibitory effect of the drugs on blood coagulation and also on platelet
aggregation. These figures are indicated in FIG. 2 which corresponds to a
normal thromboelastogram.

The mark [6] stands for this setting: Rattus norvegicus, Platelet, read-out: Platelet Aggregation Inhibition (PAI), ADP 4.1×10^-6 M, rat plasma.
The mark [7] stands for this setting: Rattus norvegicus, Platelet, read-out: Platelet Aggregation Inhibition (PAI), Collagen 33.3 μg/ml, rat plasma.

Take `O=C(O)c1ccc(C(F)(F)F)cc1OP(=O)(O)O` [2-phosphonoxy-4-trifluoromethylbenzoic acid]: the “in vivo action on human platelet aggregation (in words)” value in data set [1] is recorded as “only a slight in vivo action on human platelet aggregation”. Moreover, the “y (collagen-induced aggregation curve)” value in data set [2] (4th day, decrease vs control = inhibition) was 49 mm and 42 mm and 36 mm and 37 mm and 41 mm. In addition, in data set [2] (4th day), the “delay (collagen-induced aggregation curve)” value was 36 xc and 24 xc and 48 xc; the “x (collagen-induced aggregation curve)” value is 14 mm and 16 mm and 17 mm and 22 mm and 18 mm. For the same compound, in data set [2] (7th day), the “delay (collagen-induced aggregation curve)” value was 48 xc and 24 xc and 36 xc; the “x (collagen-induced aggregation curve)” value was 13 mm and 14 mm and 15 mm and 23 mm and 12 mm. For the same compound, the inhibition at 830 µM in data set [3] (Rattus norvegicus, Platelet, read-out: Platelet Aggregation Inhibition (PAI), ADP 4.1×10^-6 M, plasma concentration 0.83×10^-3 molar, rat plasma) amounted to 11.2%. Besides, in data set [3] (Rattus norvegicus, Platelet, read-out: Platelet Aggregation Inhibition (PAI), ADP 4.1×10^-6 M, plasma concentration 2.08×10^-3 molar, rat plasma), the inhibition at 2080 µM was found to be 23.1%. For the same compound, in data set [3] (setting [6]), the inhibition at 4150 µM amounted to 57.5% and the inhibition at 8300 µM came out at 69.8%. In addition, in data set [3] (setting [7]), the inhibition at 4150 µM is 45.5% and the inhibition at 8300 µM was determined as 94.5%. For the same compound, the inhibition at 6250 µM in data set [4] (read-out: Platelet Aggregation Inhibition (PAI), ADP 1.6×10^-6 M, plasma concentration 6.25×10^-3 molar) came out at 56.6%. In addition, the inhibition at 8300 µM in data set [4] (read-out: Platelet Aggregation Inhibition (PAI), ADP 1.6×10^-6 M, plasma concentration 8.30×10^-3 molar) stood at 60.8%. Further, the inhibition at 4100 µM in data set [4] (read-out: Platelet Aggregation Inhibition (PAI), Collagen 33.3 mcg/ml, plasma concentration 4.10×10^-3 molar) worked out at 0%. In data set [4] (read-out: Platelet Aggregation Inhibition (PAI), Collagen 33.3 mcg/ml, plasma concentration 8.30×10^-3 molar), the inhibition at 8300 µM stood at 12.6%. Besides, the inhibition at 17000 µM in data set [4] (read-out: Platelet Aggregation Inhibition (PAI), Epinephrine 1.4×10^-6 M, plasma concentration 17.0×10^-3 molar) came out at 59%. In data set [5] (4th day), the Hematocrit worked out at 42.0±1.0, the Platelet count is 253.3±10.5 per mm^3 ×10^3, the “Euglobin lysis time: Von Kaulas's test” value was 145.1 ± 9.3 min and the Activated kaolin test was found to be 0.768±0.05. Also, in data set [5] (4th day), the “Activated partial thromboplastin test: APTI” value is recorded as 0.823±0.04, the “Howell's test” value turned out to be 0.873, the “Plasma prothrombine test: Quick test” value turned out to be 0.966±0.02 and the Serum prothrombin time came to 34.8 ± 2.6 s. Also, in data set [5] (4th day), the “Bleeding time, Duke test” value is 155.0 ± 19.6 s; the Clotting time was found to be 527.5 ± 30.8 s; the “Thromboelastogram K” value amounted to 25.3±2.7 cm; the Thromboelastogram r is listed as 17.8±2.0 cm. Further, in data set [5] (7th day), the Hematocrit amounted to 45.0±1.4, the Platelet count was 223.3±12.8 per mm^3 ×10^3, the “Euglobin lysis time: Von Kaulas's test” value is 136.6 ± 9.0 min and the Activated kaolin test is reported as 0.960±0.04. Besides, in data set [5] (7th day), the “Activated partial thromboplastin test: APTI” value turned out to be 0.960±0.01, the “Howell's test” value amounted to 0.793±0.07, the “Plasma prothrombine test: Quick test” value came to 0.986±0.02 and the Serum prothrombin time was determined as 33.0 ± 1.5 s. Moreover, in data set [5] (7th day), the “Bleeding time, Duke test” value came to 112.5 ± 10.8 s; the Clotting time was 520.0 ± 28.6 s; the “Thromboelastogram K” value was 19.9±1.9 cm; the Thromboelastogram r amounted to 15.0±1.3 cm. Further, in data set [5] (humans), the “anticoagulant action (in words)” value is recorded as “exert an anticoagulant action” and the “blood fibrinolytic activity (in words)” value is reported as “increase of the blood fibrinolytic activity”. Further, in data set [5] (days not separated), the Clot retraction result is listed as “NEGATIVE”, the “Degradation products of fibrinogen: DPF” value is on record as “NEGATIVE”, the “Parrot's test” value is on record as “POSITIVE IN FOUR HUMANS” and the Tourniquet test entry was “NEGATIVE”.
For the compound `CNC[C@H](O)c1ccc(O)c(O)c1` [epinephrine, reference compound], in data set [3] (epinephrine as aggregating agent), the “influence on rat platelets” value is on record as “no”.
